Experimental data published in patent US6193954A, “Formulations for pulmonary delivery of dopamine agonists” (Abbott Laboratories, priority 1997, dated 2001).
Structures can show the parent of a compound that is named as a salt.

Key:
[1] = Bioavailability of MDI compositions in dogs, inhalation vs intravenous (plasma diol); format: in vivo, beagle dog; conditions: dog
From the text: The aerosol sprays were delivered anteriorly via a tracheal stoma in each subject animal (beagle dog).

[2] = Intratracheal administration of liquid formulation to tracheotomized dogs; format: in vivo; conditions: 0.1 mg/kg (approximately 0.5 ml), mannitol/water solution
Experimental: The viscosity of the administered solution was similar to water and the dose was squirted into the tube via pressure from a syringe filled with the liquid formulation. This formlation would not be administered through nasal or mouth means.
The solution used in the intratracheal administration contained the following:
Compound of example 1 6.9 mg/ml
with water for Injection as the solvent.
The above percentages may be varied by one of ordinary skill in the art to provide various dosages and/or ratios of the above excipients or compounds.

[3] = Dispersion quality of MDI formulations (visual suspension quality after 24 hours); format: physicochemical; conditions: HFC-134a
Experimental: A determination of the dispersion quality of several MDI formulations prepared with HFA-134a was conducted as follows: Pluronic® L44 (BASF Corp., Parsippany, N.J.), drug and excipients being formulated were combined in the amounts shown in appropriate transparent aerosol containers (vials). The vials were crimped using a 100 μL Valois metered valve and charged with approximately 10 mL of HFC-134a. The container was shaken for about 30 minutes to blend the ingredients. The dispersion quality in each preparation was evaluated visually after 24 hours using the following criteria:
Poor: Phase separation; top phase clear, bottom phase containing solids
Fair: Partial phase separation; cloudiness in the top phase
Good: Grainy appearance; no phase separation
Excellent: Milky homogeneous appearance; no phase separation

For `CCCc1cc2c(s1)CN[C@@H]1CCc3cc(OC(C)=O)c(OC(C)=O)cc3[C@@H]21` [Compound of Example 1, (5aR-trans)-4,5,6,7,11b-hexahydro-2-propylbenzo[f]thieno[2,3-c]quinoline-9,10-diol, diacetate (ester) hydrochloride], the “lung absorption following inhalation delivery vs I.V. administration” value ([1]; inhalation) was “occurs more efficiently than I.V. administration”, the “absorption upon delivery to the lungs” value ([1]; suspended in HFC-134a) was “well absorbed upon delivery to the lungs” and the “delivery on intratracheal administration” value [2] was “effectively delivered”. For the same compound, the “Suspension Quality” value ([3]; 20 mg drug, 0 Pluronic L44, 0 tocopherol acetate) was “good”, the “Suspension Quality” value ([3]; 20 mg drug, 3 Pluronic L44, 0 tocopherol acetate) was “good” and the “Suspension Quality” value ([3]; 20 mg drug, 3 Pluronic L44, 2 mg tocopherol acetate) was “good”. The “Suspension Quality” value ([3]; 20 mg drug, 5 Pluronic L44, 0 tocopherol acetate) was “good”, the “Suspension Quality” value ([3]; 20 mg drug, 5 Pluronic L44, 2 mg tocopherol acetate) was “good” and the “Suspension Quality” value ([3]; 40 mg drug, 0 Pluronic L44, 0 tocopherol acetate) was “good”. For the same compound, the “Suspension Quality” value ([3]; 40 mg drug, 3 Pluronic L44, 0 tocopherol acetate) was “good”, the “Suspension Quality” value ([3]; 40 mg drug, 3 Pluronic L44, 2 mg tocopherol acetate) was “good” and the “Suspension Quality” value ([3]; 40 mg drug, 5 Pluronic L44, 0 tocopherol acetate) was “good”. The “Suspension Quality” value ([3]; 40 mg drug, 5 Pluronic L44, 2 mg tocopherol acetate) was “good”.
